Results taken from patent US9546151B2, “VMAT inhibitory compounds” (Oregon Health & Science University, priority 2014, dated 2017).
Where a name gives a salt, the structure may show the parent alone. Read-outs that look alike come from different tables or passages of the source.

Legend:
VMAT2 [1] = molecular target: T1, VMAT2 (Homo sapiens, UniProt Q05940); experiment: hVMAT2 [3H]DTBZ ([3H]DHTB) binding assay; design: expressed in transfected cells; host or cells: HEK (human embryonic kidney) cells
T1 sequence (Q05940 whole entry): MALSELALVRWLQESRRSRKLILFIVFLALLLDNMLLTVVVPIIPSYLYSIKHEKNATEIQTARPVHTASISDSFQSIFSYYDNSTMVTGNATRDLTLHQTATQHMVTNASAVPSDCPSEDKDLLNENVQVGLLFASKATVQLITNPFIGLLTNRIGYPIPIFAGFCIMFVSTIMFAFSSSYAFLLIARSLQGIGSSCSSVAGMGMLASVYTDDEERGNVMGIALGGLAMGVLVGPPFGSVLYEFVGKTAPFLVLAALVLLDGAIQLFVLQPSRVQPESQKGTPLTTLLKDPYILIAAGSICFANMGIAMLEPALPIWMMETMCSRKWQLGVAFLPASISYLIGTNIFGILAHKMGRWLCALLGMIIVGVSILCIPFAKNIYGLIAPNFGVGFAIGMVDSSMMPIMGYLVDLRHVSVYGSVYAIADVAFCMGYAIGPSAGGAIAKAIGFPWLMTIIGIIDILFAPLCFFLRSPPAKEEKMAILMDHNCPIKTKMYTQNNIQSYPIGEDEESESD
Method: (§1) Membrane preparation for binding, uptake and release assays using HEK-hVMAT2 cells: Human embryonic kidney cells expressing the human vesicular monoamine transporter 2 (HEK-hVMAT2) were used. HEK-hVMAT2 cells were grown until confluent. The media was removed from plates, solution A [sucrose (0.32 M) with protease inhibitors] was added to the plate, and cells were scraped from plate. Cells were homogenized with 12 strokes of a glass/glass homogenizer. The homogenate was centrifuged at 800×g for 10 min. The supernatant was removed and saved, and the pellet was resuspended, homogenized and centrifuged as above. The supernatants were combined and centrifuged at 10,000×g for 20 min. The pellet was resuspended in solution A (0.75 ml). The membranes were osmotically shocked by addition of 2.625 ml ice cold water and homogenized by 5 strokes of a glass/Teflon homogenizer. The osmolarity was reestablished with addition of Tris (338 μl, 0.25M, pH 7.4 at 4° C.), sodium potassium tartrate (338 μl, 1.0 M), and MgSO4 (4 μl, 0.9M). The homogenate was centrifuged at 20,000×g for 20 min.
Binding was terminated by filtration over Whatman GF/C filters using a Tomtec 96-well cell harvester. Filters were washed for six seconds with ice-cold saline. Scintillation fluid was added to each square and radioactivity remaining on the filters was determined using a Wallac μ- or beta-plate reader. Specific binding was defined as the difference in binding observed in the presence and absence of Ro4-1284 (10 μM, generously supplied by Hoffman LaRoche). Three or more independent competition experiments were conducted with duplicate determinations.

VMAT2 [2] = molecular target: T1, VMAT2; experiment: hVMAT2 5HT Uptake; assay type: biochemical; design: expressed in transfected cells; host or cells: HEK (human embryonic kidney) cells
Method: as §1

[3] = cells printed in μM under a head in nM, HEK-hVMAT2 membranes
[4] = cells printed in μM under a head in nM, read-out: hVMAT2 5HT Uptake IC50 (nM) ± SEM
[5] = [^3H]5HT uptake, HEK-hVMAT2 preparation, read-out: hVMAT2 5HT Uptake IC50 (nM) ± SEM
[6] = HEK-hVMAT2 membranes, series 5 ligands tested as hydrochloride salts

SMILES | melting point [°C] | Ki (VMAT2 [1]; [3]) [µM] | IC50 (VMAT2 [2]; [5]) [µM] | further results
CCOC(=O)C1=C(c2ccc(F)cc2)CCN(CCn2c(=O)[nH]c3ccccc3c2=O)C1 | 150 to 152 |  |  | 
O=c1[nH]c2ccccc2c(=O)n1CCN1CC=C(c2ccc(F)cc2)CC1 | 208 |  |  | 
CCOC(=O)[C@H]1CN(CCn2c(=O)[nH]c3ccccc3c2=O)CC[C@H]1c1cccc(N(C)C)c1 (racemic) (as salt: HCl) [Compound 5aa, (±)-syn-Ethyl 4-(3-(dimethylamino)phenyl)-1-(2-(2,4-dioxo-1,2-dihydroquinazolin-3(4H),-yl)ethyl) piperidine-3-carboxylate] | 179 to 180 |  |  | 
CCOC(=O)[C@H]1CN(CCn2c(=O)[nH]c3ccccc3c2=O)CC[C@H]1c1ccccc1N(C)C (racemic) (as salt: HCl) [Compound 5bb, (±)-syn-Ethyl 4-(2-(dimethylamino)phenyl)-1-(2-(2,4-dioxo-1,2-dihydroquinazolin-3(4H),-yl)ethyl) piperidine-3-carboxylate] | 208 to 209 |  |  | 
CCOC(=O)[C@H]1CN(CCn2c(=O)[nH]c3ccccc3c2=O)CC[C@H]1c1ccc(OC)c(OC)c1 (racemic) (as salt: HCl) [Compound 5dd, (±)-syn-Ethyl 4-(3,4-dimethoxyphenyl)-1-(2-(2,4-dioxo-1,2-dihydroquinazolin-3(4H),-yl)ethyl) piperidine-3-carboxylate] | 154.5 to 155.5 |  |  | 
CCOC(=O)[C@H]1CN(CCn2c(=O)[nH]c3ccccc3c2=O)CC[C@H]1c1ccc(O)c(O)c1 (racemic) (as salt: HCl) [Compound 5ff, (±)-syn-Ethyl 4-(3,4-dihydroxyphenyl)-1-(2-(2,4-dioxo-1,2-dihydroquinazolin-3(4H)-yl)ethyl)piperidine-3-carboxylate] | 167 to 168.5 |  |  | 
CCOC(=O)[C@H]1CN(CCn2c(=O)[nH]c3ccccc3c2=O)CC[C@H]1c1ccc2c(c1)OCCO2 (racemic) (as salt: HCl) [Compound 5gg, (±)-syn-Ethyl 4-(2,3-dihydrobenzo[b][1,4]dioxin-6-yl)-1-(2-(2,4-dioxo-1,2-dihydroquinazolin-3(4H)-yl)ethyl)piperidine-3-carboxylate] | 178 to 179 |  |  | 
CCOC(=O)[C@H]1CN(CCn2c(=O)[nH]c3ccccc3c2=O)CC[C@H]1c1ccccc1N(C)C (racemic) [Compound 5bb, (±)-syn-Ethyl 4-(2-(dimethylamino)phenyl)-1-(2-(2,4-dioxo-1,2-dihydroquinazolin-3(4H),-yl)ethyl) piperidine-3-carboxylate] |  | > 6 |  | IC50 (VMAT2 [2]; [4]): > 2 µM
CCOC(=O)[C@H]1CN(CCn2c(=O)[nH]c3ccccc3c2=O)CC[C@H]1c1cccc(N=[N+]=[N-])c1 (racemic) [Compound 5cc, (±)-syn-Ethyl 4-(3-azidophenyl)-1-(2-(2,4-dioxo-1,2-dihydroquinazolin-3(4H)-yl)ethyl)piperidine-3-carboxylate] |  | > 7 | 0.074 ± 0.011 | 
CCOC(=O)[C@H]1CN(CCn2c(=O)[nH]c3ccccc3c2=O)CC[C@H]1c1ccc(OC)c(OC)c1 (racemic) [Compound 5dd, (±)-syn-Ethyl 4-(3,4-dimethoxyphenyl)-1-(2-(2,4-dioxo-1,2-dihydroquinazolin-3(4H),-yl)ethyl) piperidine-3-carboxylate] |  | > 10 |  | IC50 (VMAT2 [2]; [4]): > 3 µM
CCOC(=O)[C@H]1CN(CCn2c(=O)[nH]c3ccccc3c2=O)CC[C@H]1c1ccc(O)c(O)c1 (racemic) [Compound 5ff, (±)-syn-Ethyl 4-(3,4-dihydroxyphenyl)-1-(2-(2,4-dioxo-1,2-dihydroquinazolin-3(4H)-yl)ethyl)piperidine-3-carboxylate] |  |  | 0.333 ± 0.085 | 
CCOC(=O)[C@H]1CN(CCn2c(=O)[nH]c3ccccc3c2=O)CC[C@H]1c1ccc(C)s1 [A1=CH3] |  |  |  | Ki (VMAT2 [1]): > 8 µM; IC50 (VMAT2 [2]): 0.312 ± 0.018 µM

The next lines start with results.

melting point [°C] | Ki (VMAT2 [1]; [3]) [µM] | IC50 (VMAT2 [2]; [5]) [µM] | SMILES | further results
153.5 to 154.5 |  |  | CCOC(=O)C1=C(c2ccccc2C(F)(F)F)CCN(CCn2c(=O)[nH]c3ccccc3c2=O)C1 (as salt: HCl) [Compound 5hh, Ethyl 1-(2-(2,4-dioxo-1,2-dihydroquinazolin-3(4H)-yl)ethyl)-4-(2-(trifluoromethyl)phenyl)-1,2,5,6-tetrahydropyridine-3-carboxylate] | 
150 to 151.5 |  |  | CCOC(=O)[C@H]1CN(CCn2c(=O)[nH]c3ccccc3c2=O)CC[C@H]1c1ccc(OC(F)(F)F)cc1 (racemic) (as salt: HCl) [Compound 5ii, (±)-syn-ethyl 1-(2-(2,4-dioxo-1,2-dihydroquinazolin-3(4H)-yl)ethyl)-4-(4-(trifluoromethoxy)phenyl)piperidine-3-carboxylate] | 
155 to 156 |  |  | CCOC(=O)[C@H]1CN(CCn2c(=O)[nH]c3ccccc3c2=O)CC[C@H]1c1cccc(OC(F)(F)F)c1 (racemic) (as salt: HCl) [Compound 5jj, (±)-syn-Ethyl 1-(2-(2,4-dioxo-1,2-dihydroquinazolin-3(4H)-yl)ethyl)-4-(3-(trifluoromethoxy)phenyl)piperidine-3-carboxylate] | 
 | > 3 |  | CCOC(=O)[C@@H]1CN(CCn2c(=O)[nH]c3ccccc3c2=O)CC[C@@H]1c1ccc(C(N)=O)cc1 (racemic) [Compound 5i, (±) syn-ethyl 4-(4-carbamoylphenyl)-1-(2-(2,4-dioxo-1,2-dihydroquinazolin-3(4H)-yl)ethyl)piperidine-3-carboxylate] | IC50 (VMAT2 [2]; [4]): > 10 µM
 | > 5 |  | CCOC(=O)[C@H]1CN(CCn2c(=O)[nH]c3ccccc3c2=O)CC[C@H]1c1ccc(OC(F)(F)F)cc1 (racemic) [Compound 5ii, (±)-syn-ethyl 1-(2-(2,4-dioxo-1,2-dihydroquinazolin-3(4H)-yl)ethyl)-4-(4-(trifluoromethoxy)phenyl)piperidine-3-carboxylate] | 
 | > 10 | 2.15 ± 0.237 | CCOC(=O)[C@H]1CN(CCn2c(=O)[nH]c3ccccc3c2=O)CC[C@H]1c1ccc(N)cc1 (racemic) [Compound 5mm, (±)-syn-Ethyl 4-(4-aminophenyl)-1-(2-(2,4-dioxo-1,2-dihydroquinazolin-3(4H),-yl)ethyl) piperidine-3-carboxylate] | 
 | > 10 | 0.18 ± 0.054 | CCOC(=O)[C@H]1CN(CCn2c(=O)[nH]c3ccccc3c2=O)CC[C@H]1c1cccc(OC)c1 (racemic) [Compound 5q, (±)-syn-Ethyl 1-(2-(2,4-dioxo-1,2-dihydroquinazolin-3(4H),-yl)ethyl)-4-(3-methoxyphenyl) piperidine-3-carboxylate] | 
 | > 10 | 0.036 ± 0.011 | CCOC(=O)[C@H]1CN(CCn2c(=O)[nH]c3ccccc3c2=O)CC[C@H]1c1ccc(OC)cc1 (racemic) [Compound 5r, (±)-syn-Ethyl 1-(2-(2,4-dioxo-1,2-dihydroquinazolin-3(4H),-yl)ethyl)-4-(4-methoxyphenyl) piperidine-3-carboxylate] | 
 |  | 0.906 ± 0.014 | CCOC(=O)[C@H]1CN(CCn2c(=O)[nH]c3ccccc3c2=O)CC[C@H]1c1ccc(CC)cc1 (racemic) [Compound 5t, (±)-syn-Ethyl 1-(2-(2,4-dioxo-1,2-dihydroquinazolin-3(4H),-yl)ethyl)-4-(4-ethylphenyl) piperidine-3-carboxylate] | Ki (VMAT2 [1]; [6]): > 8.4 µM
 |  | 0.684 ± 0.249 | CCOC(=O)[C@H]1CN(CCn2c(=O)[nH]c3ccccc3c2=O)CC[C@H]1c1ccc(C(C)C)cc1 (racemic) [Compound 5u, (±)-syn-Ethyl 1-(2-(2,4-dioxo-1,2-dihydroquinazolin-3(4H),-yl)ethyl)-4-(4-isopropylphenyl) piperidine-3-carboxylate] | Ki (VMAT2 [1]; [6]): 1.62 ± 0.107 µM
 |  | 0.053 ± 0.01 | CCOC(=O)[C@H]1CN(CCn2c(=O)[nH]c3ccccc3c2=O)CC[C@H]1c1cccc(C)c1 (racemic) [Compound 5y, (±)-syn-Ethyl 1-(2-(2,4-dioxo-1,2-dihydroquinazolin-3(4H),-yl)ethyl)-4-(m-tolyl)piperidine-3-carboxylate] | Ki (VMAT2 [1]; [6]): > 6.2 µM
 | > 5 | 0.031 ± 0.003 | CCOC(=O)[C@H]1CN(CCn2c(=O)[nH]c3ccccc3c2=O)CC[C@H]1c1ccccc1C (racemic) [Compound 5z, (±)-syn-Ethyl 1-(2-(2,4-dioxo-1,2-dihydroquinazolin-3(4H),-yl)ethyl)-4-(o-tolyl)piperidine-3-carboxylate] | 
 |  | 0.328 ± 0.038 | CCOC(=O)C1=C(c2ccccc2C(F)(F)F)CCN(CCn2c(=O)[nH]c3ccccc3c2=O)C1 [Compound 5hh, Ethyl 1-(2-(2,4-dioxo-1,2-dihydroquinazolin-3(4H)-yl)ethyl)-4-(2-(trifluoromethyl)phenyl)-1,2,5,6-tetrahydropyridine-3-carboxylate] | 
 |  | 0.142 ± 0.023 | O=C(c1ccc(F)cc1)C1CCN(CCn2c(=O)[nH]c3ccccc3c2=O)CC1 [R1=H, R2=H] | Ki (VMAT2 [1]; [6]): 0.119 ± 0.003 µM
